# Assay results reported in patent US20230340012A1, “NATURAL AND SYNTHETIC COMPOUNDS FOR TREATING CANCER AND OTHER DISEASES” (PACIFIC ARROW LIMITED, priority 2009, published 2023).
# Values joined by “and” are separate entries in the source; they are usually repeats but may differ in a detail not shown here. Equal entries are not always repeated.
# Assays:
# cancer cells = experiment: Inhibition of cancer growth, cancer invasion, cell invasion or cancer cell invasion; type: cell-based
# From the text: The program is based on our purification methods and biological assays including the MTT assay. See International Application No. PCT/US05/31900, filed Sep. 7, 2005, U.S. Serial No. 11/289,142, filed Nov. 28, 2005, and U.S. Serial No. 11/131551, filed May 17, 2005, and PCT/US2008/002086, 1188-ALA-PCT, filed Feb. 15, 2008, 12/344,682, 1020-B1-US, filed Dec. 29, 2008. The details of Analysis of gene expression of ES2 cells after Y-treatment by Microarray, Data Analysis Methods and Western blot in PCT/US2008/002086, 1188-ALA-PCT, filed Feb. 15, 2008, and the cell invasion experiments methods in International Application PCT/US2010/0042240, filed Jul. 16, 2010.
# KB = experiment: MTT assay, mouth (KB); type: cell-based, human
# Experimental: (§1) Cells. HTB-9 (bladder), HeLa-S3 (cervix), DU145 (prostate), H460 (lung), MCF-7 (breast), K562 (leukemia), HCT116 (colon), HepG2 (liver), U2OS (bone), T98G (brain), SK-MEL-5 (Skin) and OVCAR 3, ES2 (ovary), Pancreas (Capan), Mouth (KB), Kidney(A498).
# (§2) MTT Assay. The procedure for MTT assay followed the method described by Carmichael et al. (1987) with modifications. The cells were seeded into a 96-well plate at for 24 hours before drug-treatment. The cells were then exposed to the drugs for 48, 72, or 96 hours. After the drug-treatment, MTT (0.5 mg/mL) was added to cultures and incubated for an hour. The formazan (product of the reduction of tetrazolium by viable cells) formed and was dissolved with DMSO and the O.D. at 490 nm, and was measured by an ELISA reader. The MTT level of the cells before drug-treatment was also measured (T0). The % cell-growth (%G) is calculated as: %G = (TD-T0 / TC-T0) x 100(1), where TC or TD represents O.D. readings of control or drug-treated cells. When T0 > TD, then the cytotoxicity (LC) expressed as % of the control is calculated as: %LC = (TD-T0 / T0) × 100(2).
# A498 = experiment: MTT assay, kidney (A498); type: cell-based, human
# Experimental: as §1, §2
# Fibronectin = Fibronectin secretion experiment (Western blot); type: cell-based; conditions: bladder, cervix, prostate, lung, breast, leukemia, colon, liver, bone, brain, skin, ovary, pancreas, mouth, kidney cells; 24 hours
# Experimental: Western blot is applied in this invention as a method to detect the specific proteins in treated and untreated cells with compounds in this invention, wherein the cells are bladder, cervix, prostate, lung, breast, leukemia, colon, liver, bone, brain, Skin, ovary, Pancreas(Capan), Mouth(KB), Kidney.
# Cells: targeted cells were grown in RPMI 1640 medium. 1.5 million cells were seeded in a T25 flask and grown for 24 hours before drug-treatment.
# Drug-treatment: Cells cultures were replaced with fresh RPMI medium containing either 2.5 ul of DMSO (as control) [D]; or 10, 20, 30, 40, 80 ug/ml of tested compounds.
# After 24 hours, aliquot of culture medium was taken out for Fibronectin determination (Western blot method).
# Cell viability at 24 hours was determined by MTT assay. Cultures were replaced with RPMI medium (5 ml) with MTT and incubated for an hour. The formation of formazan was dissolved in 10 ml of DMSO and OD at 570 nm was measured (MTT units). Western Blot: Spent culture medium was mixed with SDS sample buffer, boiled for 3 minutes before loading to SDS gel. Samples were applied to a 6-10% SDS gel and electrophoresis was conducted with 100 volts for 2 hours. Protein was transferred to a nitrocellulose membrane electrophoretically. The nitrocellulose blot was incubated with the first antibody and second antibody (AP conjugated, Promega S3721). The immuno-bands were developed with BCIP/NBT color development system.
# Determination of Western blot band intensity: The band-images of Western blot were captured with a digital camera and the intensity of bands was determined using “Image J” software.
# HTB-9 = experiment: MTT assay, bladder (HTB-9); type: cell-based, human
# Experimental: as §1, §2
# HepG2 = experiment: MTT assay, liver (HepG2); type: cell-based, human
# Experimental: as §1, §2
# ES2 = experiment: MTT assay, ovary (ES2); type: cell-based, human
# Experimental: as §1, §2
# Method: A. Cells • -WI38 is a Normal Lung fibroblast. Cells were grown in MEM medium supplemented with 10% FCS, antibiotics and glutamine. 20 K cells were seeded per well (96-welled plate) for one day before drug-treatment • -ES2 is an Ovary Clear cells carcinoma. Cells were grown in RPMI-1640 medium supplemented with 10% FCS, antibiotics and glutamine. 10 K cells were seeded per well (96-welled plate) for one day before drug-treatment.
# B. Drug treatment: • -Drug: Tig-S. stored as 1000x stock solution in DMSO. • -Drug concentration used: from 0.15 - 20 ug/ml. • -Drug-treatment was carried out for 2 days (ES2) or 6 days (WI38). For the 6 days incubation, cells were fed with fresh medium (with drug) on day 3 and 5.
# C. At the end of the drug-treatment, cytotoxic test was performed with MTT assay.
# MCF-7 = experiment: MTT assay, breast (MCF-7); type: cell-based, human
# Experimental: as §1, §2
# K562 = experiment: MTT assay, leukemia (K562); type: cell-based, human
# Experimental: as §1, §2
# ES2 cells = experiment: Inhibition of cell adhesion, ES2; type: cell-based, human; conditions: for ES2 cells attached to flasks compared to no drug controls / unattached cells alive: 5 ug/ml; for ES2 cells attached to flasks compared to no drug controls: 5 hours; for unattached cells alive: trypan Blue exclusion; for unattached cells alive / cells attached to flasks: ES2 or Hey8A; for cells attached to flasks: 10 ug/ml
# Experimental: Methods and Results. ES2 or Hey8A cells were plated in T25 flasks with medium containing 5 ug/ml of compounds selected from structure (2A) including E4A-Tig-R, E4A-Tig-V, E4A-Tig-S, E4A-Tig-N, E4A-Tig-Q, E4A-Tig-T. Cultures were incubated for 5 hours. Attached cells were removed from flasks by trypsinization and the numbers/amounts were counted. Compared to no drug controls, 80 ± 4% of ES2 cells and 60 ± 4% of Hey8A cells were found attached to flasks under this condition. At 5 ug/ml of above compounds, over 90% of unattached cells are alive as determined by the trypan Blue exclusion assay and by their ability to re-attach to flasks when plating in medium without tested compounds. However, with 10 ug/ml tested compounds, less than 40% of cells attached to flasks and many of them are dead cells.
# HeLa = experiment: MTT assay, cervix (HeLa); type: cell-based, human
# Experimental: as §1, §2
Compound,anti-cancer activity (cancer cells),IC50 of mouth (KB) (KB),IC50 of kidney (A498) (A498),inhibition of fibronectin secretion (Fibronectin),IC50 of bladder (HTB-9) (HTB-9),IC50 of liver (HepG2) (HepG2),IC50 of ovary (ES2) (ES2; MTT),IC50 of breast (MCF-7) (MCF-7),IC50 of leukemia (K562) (K562),ES2 cells attached to flasks compared to no drug controls (ES2 cells),unattached cells alive (ES2 cells),cells attached to flasks (ES2 cells),IC50 of cervix (HeLa) (HeLa),"IC50, ES2 cells (ES2; 2 days drug treatment, MTT)","IC100, ES2 cells (ES2; MTT OD after treatment equal to OD before treatment, 2 days)",IC50 in ES2 cells (ES2; MTT assay with low doses of Tig-S),"% of the control cell growth, ES2 (ES2; at 10 ug/ml)","MTT OD as % of the original value, ES2 (ES2; at 10 ug/ml)"
"24,28-O-Tigloyl-3β,16α, 21β, 22a, 24β, 28-hexahydroxyolean-12-ene [Tig-R]",have anti-cancer activities,3 µg/mL,3.5 µg/mL,20-40%,2.5 µg/mL,6 µg/mL,2.8 ug/ml and about 2.8 ug/ml,4.5 µg/mL,2 µg/mL,80 ± 4%,over 90%,less than 40%,,,,,,
CC=C(C)C(=O)OCC1(C)C(O)CCC2(C)C1CCC1(C)C2CC=C2C3CC(C)(C)C(O)C(O)C3(CO)C(O)CC21C (centres unmarked) [Tig-N],have anti-cancer activities,9 µg/mL,11 µg/mL,20-40%,7.5 µg/mL,18 µg/mL,9 µg/mL,13 µg/mL,6 µg/mL,80 ± 4%,over 90%,less than 40%,15 µg/mL,,,,,
CC=C(C)C(=O)OCC1(C)C(O)CCC2(C)C1CCC1(C)C2CC=C2C3CC(C)(C)C(OC(=O)C(C)=CC)C(O)C3(CO)C(O)CC21C (centres unmarked) [Tig-S],have anti-cancer activities,,4.8 µg/mL,20-40%,3.5 µg/mL,8.5 µg/mL,,6.3 µg/mL,4.3 µg/mL,80 ± 4%,over 90%,less than 40%,7 µg/mL,0.3 µg/mL,0.16 to 0.3 µg/mL and 0.15 to 0.3 µg/mL,~0.1 µg/mL,10%,12%
CC=C(C)C(=O)OCC1(C)C(O)CCC2(C)C1CCC1(C)C2CC=C2C3CC(C)(C)C(O)C(OC(=O)C(C)=CC)C3(COC(=O)C(C)=CC)C(O)CC21C (centres unmarked) [Tig-T],have anti-cancer activities,13 µg/mL,15 µg/mL,20-40%,,26 µg/mL,14 µg/mL,20 µg/mL,9 µg/mL,80 ± 4%,over 90%,less than 40%,18 µg/mL,,,,,
